Measured values reported in patent publication US10669261B2, “Heteroarylhydroxypyrimidinones as agonists of the APJ receptor” (BRISTOL-MYERS SQUIBB COMPANY, priority 2015, dated 2020).

Target: T1, human APJ receptor (Homo sapiens, UniProt P35414)
T1 construct: expressed in transfected cells
T1 sequence (P35414 1-380): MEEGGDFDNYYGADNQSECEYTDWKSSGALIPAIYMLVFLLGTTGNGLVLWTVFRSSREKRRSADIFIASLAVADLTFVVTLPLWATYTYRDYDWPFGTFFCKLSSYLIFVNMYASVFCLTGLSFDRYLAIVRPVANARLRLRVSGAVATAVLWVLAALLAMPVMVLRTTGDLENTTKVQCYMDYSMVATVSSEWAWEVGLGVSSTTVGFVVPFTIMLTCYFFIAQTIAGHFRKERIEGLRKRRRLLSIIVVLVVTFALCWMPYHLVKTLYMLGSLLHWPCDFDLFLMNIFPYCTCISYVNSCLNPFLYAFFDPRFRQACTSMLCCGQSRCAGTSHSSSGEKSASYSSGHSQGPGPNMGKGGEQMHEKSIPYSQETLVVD
Assay: Intracellular cAMP accumulation assay (APJ hcAMP, HTRF)
Assay type: cell-based
Settings: HEK293 cells stably expressing human APJ receptor; inhibition of forskolin-mediated cAMP production; stated at end of example; read-out: Human APJ cAMP Potency Range
Experimental: Intracellular cAMP Accumulation Assay
HEK293 cells stably expressing human APJ receptor were used to assess the activity of compounds. Cultured cells were detached and resuspended in the cAMP Homogeneous Time-Resolved Fluorescence (HTRF) assay buffer (Cisbio cat; #62AM4PEJ). The assay was performed in 384-well assay plates (Perkin-Elmer; cat #6008289) according to assay protocol provided by the manufacturer. Serial dilutions of a compound together with assay buffer containing […] IBMX and 2 μM forskolin were added to each well containing 5,000 cells and incubated for 30 minutes at room temperature. Subsequently, cAMP D2 reagent was added in the lysis buffer followed by the EuK antibody (Cisbio; cat #62AM4PEJ) and incubated for 60 min. The fluorescence emission ratio was measured using fluorometer. The intracellular cAMP concentrations (compound-stimulated inhibition of forskolin-mediated cAMP production) were calculated by extrapolation from a standard curve using known cAMP concentrations. The EC50 values were obtained by fitting the data to a sigmoidal concentration-response curve with variable slope. The maximal achievable inhibition of forskolin-induced cAMP levels (Ymax) for each compound was expressed as relative percentage of inhibition attained using pyroglutamated apelin-13 ((Pyr1)apelin-13) peptide, which was set to 100%.
The examples disclosed below were tested in the APJ in vitro assays described above and were found having human APJ cyclic AMP (hcAMP) activity. The EC50 value of each compound is presented at the end of the example description.
The biological activity of the exemplified compounds of this invention determined by the assay described above is shown at the end of each example.

**Q.** How did the EC50 turn out when `CCN(CC)C(=O)Cc1nnc(-c2c(O)n(-c3c(OC)cccc3OC)c(CCC3CC3)nc2=O)o1` [Example 52, 2-(5-(2-(2-Cyclopropylethyl)-1-(2,6-dimethoxyphenyl)-6-hydroxy-4-oxo-1,4-dihydropyrimidin-5-yl)-1,3,4-oxadiazol-2-yl)-N,N-diethylacetamide] was run?
**A.** Its EC50 is 0.01 to 10 nM.

**Q.** With `COc1cccc(OC)c1-n1c(CCC2CC2)nc(=O)c(-c2nnc(CN(C)C(=O)c3ccccn3)o2)c1O` [Example 53, N-((5-(2-(2-cyclopropylethyl)-1-(2,6-dimethoxyphenyl)-6-hydroxy-4-oxo-1,4-dihydropyrimidin-5-yl)-1,3,4-oxadiazol-2-yl)methyl)-N-methylpicolinamide] as the compound, how does the EC50 read?
**A.** Its EC50 is 0.01 to 10 nM.

Same assay, conditions: Table 1; HEK293 cells stably expressing human APJ receptor; read-out: hAPJ cAMP EC50 Potency range

**Q.** `[2H]C([2H])([2H])Oc1cccc(OC([2H])([2H])[2H])c1-n1c(CCCC)nc(=O)c(-c2nnc(Cc3ccc(Cl)cc3)o2)c1O` [Example 49, 1-[2,6-bis(^2H3)methoxyphenyl]-2-butyl-5-{5-[(4-chlorophenyl)methyl]-1,3,4-oxadiazol-2-yl}-6-hydroxy-1,4-dihydropyrimidin-4-one] was tested. Which EC50 did it give?
**A.** Its EC50 is 0.01 to 10 nM.

**Q.** How did the EC50 turn out when `[2H]C([2H])([2H])Oc1cccc(OC([2H])([2H])[2H])c1-n1c(COCC)nc(=O)c(-c2nnc(Cc3noc4ccccc34)o2)c1O` [Example 50, 5-[5-(1,2-benzoxazol-3-ylmethyl)-1,3,4-oxadiazol-2-yl]-1-[2,6-bis(^2H3)methoxyphenyl]-2-(ethoxymethyl)-6-hydroxy-1,4-dihydropyrimidin-4-one] was run?
**A.** The EC50 was 0.01 to 10 nM.

**Q.** Which EC50 does the source give for `[2H]C([2H])([2H])Oc1cccc(OC([2H])([2H])[2H])c1-n1c(COCC)nc(=O)c(-c2nnc(Cc3ccc(Cl)cc3)o2)c1O` [Example 51, 1-[2,6-bis(^2H3)methoxyphenyl]-5-{5-[(4-chlorophenyl)methyl]-1,3,4-oxadiazol-2-yl}-2-(ethoxymethyl)-6-hydroxy-1,4-dihydropyrimidin-4-one] here?
**A.** The EC50 was 0.01 to 10 nM.

**Q.** For `COc1cccc(OC)c1-n1c(CCC2CC2)nc(=O)c(-c2nnc(CN(C)C(=O)c3ccccn3)o2)c1O` [Example 54, N-({5-[2-(2-cyclopropylethyl)-1-(2,6-dimethoxyphenyl)-6-hydroxy-4-oxo-1,4-dihydropyrimidin-5-yl]-1,3,4-oxadiazol-2-yl}methyl)-N-methylpyridine-2-carboxamide], which EC50 is on record?
**A.** The EC50 was 0.01 to 10 nM.

**Q.** `COc1cccc(OC)c1-n1c(CCC2CC2)nc(=O)c(-c2nnc(CNC(=O)c3cccc(Cl)c3)o2)c1O` [Example 55, 3-chloro-N-({5-[2-(2-cyclopropylethyl)-1-(2,6-dimethoxyphenyl)-6-hydroxy-4-oxo-1,4-dihydropyrimidin-5-yl]-1,3,4-oxadiazol-2-yl}methyl)benzamide] was tested. Which EC50 did it give?
**A.** Its EC50 is 0.01 to 10 nM.

**Q.** Which EC50 does the source give for `COc1cccc(OC)c1-n1c(CCC2CC2)nc(=O)c(-c2nnc(CNC(=O)c3cccnc3)o2)c1O` [Example 56, N-({5-[2-(2-cyclopropylethyl)-1-(2,6-dimethoxyphenyl)-6-hydroxy-4-oxo-1,4-dihydropyrimidin-5-yl]-1,3,4-oxadiazol-2-yl}methyl)pyridine-3-carboxamide] here?
**A.** Its EC50 is 0.01 to 10 nM.

**Q.** For `COc1cccc(OC)c1-n1c(CCC2CC2)nc(=O)c(-c2nnc(CNC(=O)c3ccccc3)o2)c1O` [Example 57, N-({5-[2-(2-cyclopropylethyl)-1-(2,6-dimethoxyphenyl)-6-hydroxy-4-oxo-1,4-dihydropyrimidin-5-yl]-1,3,4-oxadiazol-2-yl}methyl)benzamide], which EC50 is on record?
**A.** The EC50 was 0.01 to 10 nM.

**Q.** How did the EC50 turn out when `COc1cccc(OC)c1-n1c(CCC2CC2)nc(=O)c(-c2nnc(CNC(=O)c3ccccn3)o2)c1O` [Example 58, N-({5-[2-(2-cyclopropylethyl)-1-(2,6-dimethoxyphenyl)-6-hydroxy-4-oxo-1,4-dihydropyrimidin-5-yl]-1,3,4-oxadiazol-2-yl}methyl)pyridine-2-carboxamide] was run?
**A.** The EC50 was 0.01 to 10 nM.

**Q.** For `COc1cccc(OC)c1-n1c(CCC2CC2)nc(=O)c(-c2nnc(Cc3ccc(Cl)cn3)o2)c1O` [Example 59, 5-{5-[(5-chloropyridin-2-yl)methyl]-1,3,4-oxadiazol-2-yl}-2-(2-cyclopropylethyl)-1-(2,6-dimethoxyphenyl)-6-hydroxy-1,4-dihydropyrimidin-4-one], which EC50 is on record?
**A.** Its EC50 is 0.01 to 10 nM.

**Q.** For `COc1cccc(OC)c1-n1c(COC(C)C)nc(=O)c(-c2nnc(Cc3ccc(Cl)cc3F)o2)c1O` [Example 60, 5-{5-[(4-chloro-2-fluorophenyl)methyl]-1,3,4-oxadiazol-2-yl}-1-(2,6-dimethoxyphenyl)-6-hydroxy-2-[(propan-2-yloxy)methyl]-1,4-dihydropyrimidin-4-one], which EC50 is on record?
**A.** The EC50 was 0.01 to 10 nM.

**Q.** `COc1cccc(OC)c1-n1c(CCC2CC2)nc(=O)c(-c2nnc(Cc3ccc(F)cn3)o2)c1O` [Example 61, 2-(2-cyclopropylethyl)-1-(2,6-dimethoxyphenyl)-5-{5-[(5-fluoropyridin-2-yl)methyl]-1,3,4-oxadiazol-2-yl}-6-hydroxy-1,4-dihydropyrimidin-4-one] was tested. Which EC50 did it give?
**A.** The EC50 was 0.01 to 10 nM.

**Q.** How did the EC50 turn out when `COc1cccc(OC)c1-n1c(C2CCCC2)nc(=O)c(-c2nnc(Cn3ccccc3=O)o2)c1O` [Example 62, 2-cyclopentyl-1-(2,6-dimethoxyphenyl)-6-hydroxy-5-{5-[(2-oxo-1,2-dihydropyridin-1-yl)methyl]-1,3,4-oxadiazol-2-yl}-1,4-dihydropyrimidin-4-one] was run?
**A.** Its EC50 is 0.01 to 10 nM.

**Q.** How did the EC50 turn out when `COc1cccc(OC)c1-n1c(C2CCCC2)nc(=O)c(-c2nnc(Cc3ccc(Cl)nc3)o2)c1O` [Example 63, 5-{5-[(6-chloropyridin-3-yl)methyl]-1,3,4-oxadiazol-2-yl}-2-cyclopentyl-1-(2,6-dimethoxyphenyl)-6-hydroxy-1,4-dihydropyrimidin-4-one] was run?
**A.** The EC50 was 0.01 to 10 nM.

**Q.** For `COc1cccc(OC)c1-n1c(C2CCCC2)nc(=O)c(-c2nnc(CN3CCCC3=O)o2)c1O` [Example 64, 2-cyclopentyl-1-(2,6-dimethoxyphenyl)-6-hydroxy-5-{5-[(2-oxopyrrolidin-1-yl)methyl]-1,3,4-oxadiazol-2-yl}-1,4-dihydropyrimidin-4-one], which EC50 is on record?
**A.** The EC50 was 0.01 to 10 nM.

**Q.** For `COc1cccc(OC)c1-n1c(C2CCCC2)nc(=O)c(-c2nnc(Cc3csc(C)n3)o2)c1O` [Example 65, 2-cyclopentyl-1-(2,6-dimethoxyphenyl)-6-hydroxy-5-{5-[(2-methyl-1,3-thiazol-4-yl)methyl]-1,3,4-oxadiazol-2-yl}-1,4-dihydropyrimidin-4-one], which EC50 is on record?
**A.** The EC50 was 0.01 to 10 nM.

**Q.** With `COc1cccc(OC)c1-n1c(C2CCCC2)nc(=O)c(-c2nnc(Cc3ccc(Cl)cn3)o2)c1O` [Example 66, 5-{5-[(5-chloropyridin-2-yl)methyl]-1,3,4-oxadiazol-2-yl}-2-cyclopentyl-1-(2,6-dimethoxyphenyl)-6-hydroxy-1,4-dihydropyrimidin-4-one] as the compound, how does the EC50 read?
**A.** The EC50 was 0.01 to 10 nM.

**Q.** For `COc1cccc(OC)c1-n1c(C2CCCC2)nc(=O)c(-c2nnc(Cc3ccc(F)cn3)o2)c1O` [Example 67, 2-cyclopentyl-1-(2,6-dimethoxyphenyl)-5-{5-[(5-fluoropyridin-2-yl)methyl]-1,3,4-oxadiazol-2-yl}-6-hydroxy-1,4-dihydropyrimidin-4-one], which EC50 is on record?
**A.** Its EC50 is 0.01 to 10 nM.

**Q.** Which EC50 does the source give for `COc1cccc(OC)c1-n1c(C2CCCC2)nc(=O)c(-c2nnc(Cc3ccc(C)nc3)o2)c1O` [Example 68, 2-cyclopentyl-1-(2,6-dimethoxyphenyl)-6-hydroxy-5-{5-[(6-methylpyridin-3-yl)methyl]-1,3,4-oxadiazol-2-yl}-1,4-dihydropyrimidin-4-one] here?
**A.** Its EC50 is 0.01 to 10 nM.
